In general, inhibition in vivo refers to the change of the read-out against control, counted positive when it falls. A higher inhibition in vivo goes with a strong effect.

Molecules are shown by their SMILES. Active and inactive are the calls of the source. The rule behind the calls is not given here.

For experiment [1], the system named is Rattus norvegicus. Kind of experiment: Antiinflammatory activity against carrageenan-induced paw edema in Wistar rat at 5 mg/kg, po. It is filed as functional.
Experiment [2] has as its system Rattus norvegicus. Kind of experiment: Antiinflammatory activity against carrageenan-induced paw edema in Wistar rat at 1.8 mg/kg, po. On the set-up: dose 1.8 mg/kg. It is filed as functional, organism-based. In general terms: In the carrageenan paw model, swelling and tenderness develop within hours.
In experiment [3] the test system is Rattus norvegicus. Kind of experiment: Antiinflammatory activity against carrageenan-induced paw edema in Wistar rat at 1.3 mg/kg, po. The experiment is classed as functional, organism-based. Also noted: dose 1.3 mg/kg.
Experiment [4] deals with Rattus norvegicus. Kind of experiment: Antiinflammatory activity against carrageenan-induced paw edema in Wistar rat at 1.08 mg/kg, po. The experiment is classed as functional, organism-based. On the set-up: dose 1.08 mg/kg.
Experiment [5] relates to Rattus norvegicus. Kind of experiment: Antiinflammatory activity against carrageenan-induced paw edema in Wistar rat at 1.7 mg/kg, po. The experiment is classed as functional, organism-based. On the set-up: dose 1.7 mg/kg.

Compound `COc1ccc2c(c1)c(CC(=O)O)c(C)n2C(=O)c1ccc(Cl)cc1` [INDOMETHACIN] registered an inhibition in vivo at 5 mg/kg with Rattus norvegicus [1] of 85%.

As to `C[C@@]12CCC[C@H]1C1=C(CC2)[C@@]2(C)CC[C@H](O[C@@H]3O[C@H](CO[C@@H]4O[C@H](CO)[C@@H](O)[C@H](O)[C@H]4O)[C@@H](O)[C@H](O)[C@H]3O[C@@H]3O[C@H](CO)[C@H](O)[C@H](O)[C@H]3O)CC2CC1` (stereo not given in full), in the experiment with Rattus norvegicus [2], the result was inactive.

Turning to `C[C@@]12CCC[C@H]1C1=C(CC2)[C@@]2(C)CC[C@H](O[C@@H]3O[C@H](CO[C@@H]4O[C@H](CO)[C@@H](O)[C@H](O)[C@H]4O)[C@@H](O)[C@H](O)[C@H]3O)CC2CC1` (stereo not given in full), the outcome in the experiment with Rattus norvegicus [3] was inactive.

For the compound `C[C@H]1CO[C@@]2(C)O[C@@H]3C([C@@]45CCC=C4C4=C(CC5)[C@@]5(C)CC[C@H](O[C@@H]6O[C@H](CO)[C@@H](O)[C@H](O)[C@H]6O[C@@H]6O[C@H](CO)[C@H](O)[C@H](O)[C@H]6O)CC5CC4)[C@@H](O)O[C@@H]3C12O` (stereo not given in full), the outcome with Rattus norvegicus [4] was inactive.

`CC(=O)OC[C@H]1O[C@@H](O[C@H]2CC[C@]3(C)C4=C(CCC3C2)C2=CCC[C@@]2(C2[C@H]3O[C@]5(C)OC[C@H](C)C5(O)[C@H]3O[C@@H]2O)CC4)[C@H](O[C@@H]2O[C@H](CO)[C@H](O)[C@H](O)[C@H]2O)[C@@H](O)[C@@H]1O` (stereo not given in full): the outcome with Rattus norvegicus [5] was inactive.
